{"source": "patent US9937192B2", "about": "“Combination therapy to treat mycobacterium diseases” (priority 2012, dated 2018)", "type_in_all_cases": "cell-based", "key": {"M. tuberculosis H37Rv": {"system": "M. tuberculosis H37Rv", "assay": "Minimum bactericidal concentration (MBC) assay", "settings": "for Log Reduction: vs untreated control"}, "M. kansasii": {"system": "M. kansasii", "assay": "MIC in bacterial broth culture (7H9 with ADC, visual or resazurin)", "settings": "Mycobacterium kansasii, Table 31; M. kansasii 303; duplicate values"}, "[1]": {"system": "Mycobacterium tuberculosis", "assay": "Mycobacterium tuberculosis Serum Shift MIC Assay (Protocol 5)", "settings": "ATCC 35801 / ERDMAN", "description": "Protocol 5. Protocol for Mycobacterium tuberculosis Serum Shift MIC Assay\nMedia Prep: • 1. […] It was important that all media and supplements were sterilized prior to MICs. • 2. Prepared all media below and inoculated as described in next section. Tested all compounds against Mtb using each media. • a. […] 7H9+0.2% glycerol+2 g/L dextrose+0.85 g/L NaCl+0.003 g/L catalase (0% FBS). • c. 2×7H9+0.2% glycerol+2 g/L dextrose+0.85 g/L NaCl+0.003 g/L catalase combined with equal volume Fetal Bovine Serum (50% FBS).\nInoculum Prep: • 1. Using BBL Prompt, picked 5-10 well-separated colonies and inoculated 1 ml sterile saline that came in the kit. Typically plates were two to three weeks of age when used for this assay due to the slow growth of this organism in culture. • 2. Vortexed well, then sonicated in water bath for 30 sec providing a suspension of ˜10^8 cells/ml. Actual density could be confirmed by plating out dilutions of this suspension. • 3. Prepared inoculum in each of the three media formulations by diluting the BBL Prompt suspension 1/200 (for example: transferred 0.2 ml of cells to 40 ml of medium) to obtain a starting cell density of […]. • 4. Used 100 μl cells (˜5×10^4 cells) to inoculate each microtiter well containing 1 μl of drug in DMSO (see below).\nDrug Dilutions, Inoculation, MIC Determination: • 1. Control drug stocks Isoniazid and Novobiocin were prepared at 10 mM in 100% DMSO while Ciprofloxacin and Rifampin were prepared at 1 mM in 50% DMSO and 100% DMSO, respectively. Prepared dilutions—dispensed 100 μL of the stock solution into the first column of a 96-well plate. Prepared 11-step, 2-fold serial dilutions across the row for each compound by transferring 50 μl from column 1 into 50 μl of DMSO in column 2. Continued to transfer 50 μL from column 2 through column 11 while mixing and changing tips at each column. Left column 12 with DMSO only as a control. • 2. Transferred 1 μl of each dilution into an empty microtiter well prior to the addition of 100 μl of cells. The starting concentration of Isoniazid and Novobiocin was 100 μM after the dilution into medium+cells; the starting concentration of Ciprofloxacin and Rifampin was 10 μM after the dilution into medium+cells. Compound concentrations decreased in 2× steps moving across the rows of the microtiter plate. […] Measured background fluorescence at Excitation 492 nm, Emission 595 nm and returned the plate to the incubator for another 24 hours.\nAfter 24 hours the fluorescence of each well was measured at Excitation 492 nm, Emission 595 nm.\nPercent inhibition by a given compound was calculated as follows: Percent inhibition=100−([well fluorescence-average background fluorescence]/[DMSO control−average background fluorescence]×100). […]"}}, "note": "Structures can show the parent of a compound that is named as a salt. Where two headings read alike, the source gives them in different places."}
{"smiles": "CCNC(=O)Nc1nc2cc(-c3cnc(C(C)(C)O)nc3)c(F)c([C@H]3CCCO3)c2[nH]1", "note": "[Compound 23A, methanesulfonic acid salt of 1-ethyl-3-[6-fluoro-5-[2-(1-hydroxy-1-methyl-ethyl)pyrimidin-5-yl]-7-[(2R)-tetrahydrofuran-2-yl]-1H-benzimidazol-2-yl]urea]", "values": [{"measurement": "Log cfu", "setting": "M. tuberculosis H37Rv; 0.039 ug/mL", "value": 5.36}, {"measurement": "Log Reduction", "setting": "M. tuberculosis H37Rv; 0.039 ug/mL", "value": 0.77}, {"measurement": "Log cfu", "setting": "M. tuberculosis H37Rv; 0.078 ug/mL", "value": 3.75}, {"measurement": "Log Reduction", "setting": "M. tuberculosis H37Rv; 0.078 ug/mL", "value": 2.38}, {"measurement": "Log cfu", "setting": "M. tuberculosis H37Rv; 0.156 ug/mL", "value": 1.04}, {"measurement": "Log Reduction", "setting": "M. tuberculosis H37Rv; 0.156 ug/mL", "value": 5.09}, {"measurement": "Log cfu", "setting": "M. tuberculosis H37Rv; 0.312 ug/mL", "value": 1.32}, {"measurement": "Log Reduction", "setting": "M. tuberculosis H37Rv; 0.312 ug/mL", "value": 4.81}, {"measurement": "Log cfu", "setting": "M. tuberculosis H37Rv; 0.625 ug/mL", "value": 1.04}, {"measurement": "Log Reduction", "setting": "M. tuberculosis H37Rv; 0.625 ug/mL", "value": 5.09}, {"measurement": "MIC", "setting": "M. kansasii", "value": 0.03, "unit": "µg/mL"}, {"measurement": "MIC", "setting": "[1]; M. tuberculosis Erdman ATCC 35801, read-out: MIC", "value": 0.03, "unit": "µg/mL"}, {"measurement": "MIC", "setting": "[1]; M. tuberculosis Erdman ATCC 35801 with Mouse Serum", "value": 0.5, "unit": "µg/mL"}]}
